Measurements taken from US11279733B2, “Peptide antibiotics” (priority 2017, dated 2022).
Converted amounts (≈) assume the structure as drawn. Like-named read-outs stand apart in the source and are kept apart here. Positions of bridges follow the written chain, without caps; N, C: chain ends. Non-standard residues stand in square brackets, D forms with d. Residues, ends and D or L forms follow the SMILES beside them. *: point of attachment. Cholyl = C[C@H](CCC(=O)*)[C@H]1CC[C@H]2[C@@H]3[C@H](O)C[C@@H]4C[C@H](O)CC[C@]4(C)[C@H]3C[C@H](O)[C@]12C; Benzoyl(4-OPh) = O=C(c1ccc(Oc2ccccc2)cc1)*; Benzoyl(4-Ph) = O=C(c1ccc(-c2ccccc2)cc1)*; Decanoyl(3R-OH) = CCCCCCC[C@@H](O)CC(=O)*; Butanoyl(4-OPh) = O=C(CCCOc1ccccc1)*; X1 = CCCCCCCN1CCC(C(=O)*)CC1; dDab = NCC[C@@H](N)C(=O)O; Dab = NCC[C@H](N)C(=O)O

Experiments:
[1] = in vitro; conditions: human
Procedure, shortened: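 4000 cells/well, 24 h attach (37 °C, 5% CO2); compound 24 h; 5 μM resazurin 2 h, 37 °C; fluorescence ex/em 560/590. CC50 by curve fit.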

[2] = test system: P. aeruginosa GN_105, PmxR; conditions: GN 105, PmxR
Procedure, shortened: (§1)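 Mid-log cultures grown in Mueller Hinton broth at 37° C were tested by 2-fold broth microdilution at 5×10^5 CFU/mL final. Compounds were dissolved in water and tested over a final range of 32 to 0.015 μg/mL.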

[3] = test system: P. aeruginosa GN_043, PmxR
Procedure, shortened: as §1

[4] = test system: K. pneumoniae ATCC 13883; conditions: ATCC 13883
Procedure, shortened: as §1

[5] = test system: A. baumannii ATCC 19606; conditions: ATCC 19606
Procedure, shortened: as §1

[6] = test system: S. aureus ATCC 25923, MSSA; conditions: ATCC 25923
Procedure, shortened: as §1

[7] = test system: E. coli ATCC 25922; conditions: ATCC 25922
Procedure, shortened: as §1

[8] = test system: K. pneumoniae ATCC BAA-2146, NDM-1 pos; conditions: ATCC BAA-2146
Procedure, shortened: as §1

[9] = test system: K. pneumoniae GN_106, PmxR; conditions: GN 106, PmxR
Procedure, shortened: as §1

[10] = test system: P. aeruginosa ATCC 27853; conditions: ATCC 27853
Procedure, shortened: as §1

[11] = test system: A. baumannii GN_093 PmxR; conditions: GN 093 PmxR
Procedure, shortened: as §1

[12] = test system: K. pneumoniae GN_102 PmxR; conditions: GN 102 PmxR
Procedure, shortened: as §1

[13] = test system: K. pneumoniae ATCC 700603, MDR; conditions: ATCC 700603
Procedure, shortened: as §1

[14] = in vitro; conditions: human; remark: listed apart in the source
Procedure, shortened: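 HK2 cells were seeded at 2000 per well in DMEM/F12 with 10% FBS and left to attach for 24 h at 37 °C, 5% CO2. They were then exposed for 24 h to 3-fold peptide dilutions starting from 600 μM solutions in quadruplicate. LDH release was read at 450 nm, and CC50 was fitted from dose-response curves.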

[15] = in vitro; conditions: human; remark: listed apart in the source
Experimental: Cytotoxicity of the synthesised peptides was evaluated by comparison with commercially available colistin (polymyxin E), polymyxin B (Sigma chemical Co., St. Louis, Mo., U.S.A.) and synthetic octapeptin C4 by conducting lactate dehydrogenase (LDH) assay. CC50 values calculated based on curve fitting of dose dependent inhibition of cell growth represented the cytotoxicity of the peptide. Human kidney 2 (HK2) cells were seeded as 2000 cells per well in a 384 well cell culture plate in a final volume of 20 μL in DMEM/F12 medium (Invitrogen #11330057), in which 10% of FBS was added. Cells were incubated for 24 hours at 37° C., 5% CO2 to allow cells to attach to the plates. Similar conditions were employed for HEK293 and HepG2 cytotoxicity assays.
Cytotoxicity to HEK293 and HepG2 cells was determined using the resazurin assay (McMillian, M. K.; Li, L.; Parker, J. B.; Patel, L.; Zhong, Z.; Gunnett, J. W.; Powers, W. J.; Johnson, M. D. An improved resazurin-based cytotoxicity assay for hepatic cells; Cell Biol. Toxicol. 2002, 18, 157-173; O'Brien, J.; Wilson, I.; Orton, T.; Pognan, F. Investigation of the Alamar Blue (resazurin) fluorescent dye for the assessment of mammalian cell cytotoxicity. Eur. J. Biochem. 2000, 267, 5421-5426). In brief, HEK293 and HepG2 cells were seeded at 4000 cells/well in black-wall, clear-bottom 384-well plates (Corning, Australia) and incubated for 24 h at 37° C., 5% CO2. Compounds were then added into each well. After 24 h incubation, 5 μM resazurin was added per well and incubated at 37° C. for 2 h. Fluorescence intensity was then read using a Polarstar Omega with excitation/emission 560/590. The data was then analyzed using GraphPad Prism 6 software. CC50 values were determined using GraphPad Prism 6 software (Inc. La Jolla, Calif.).

SMILES	CC50 at 24 h [1]	MIC P. aeruginosa GN_105, PmxR [2]	MIC P. aeruginosa GN_043, PmxR ([3]; P. aeruginosa GN_043, PmxR)	MIC K. pneumoniae ATCC 13883 [4]	MIC A. baumannii ATCC 19606 [5]	MIC S. aureus ATCC 25923, MSSA [6]	MIC E. coli ATCC 25922 [7]	MIC K. pneumoniae ATCC BAA-2146, NDM-1 pos [8]	MIC K. pneumoniae GN_106, PmxR [9]	MIC P. aeruginosa ATCC 27853 [10]	MIC A. baumannii GN_093 PmxR [11]	MIC K. pneumoniae GN_102 PmxR [12]	MIC K. pneumoniae ATCC 700603, MDR [13]	CC50 at 24 h [14]	CC50 at 24 h [15]	MIC P. aeruginosa GN_043, PmxR [3]	MIC P. aeruginosa GN_043, PmxR ([3]; polymyxin-resistant)
CC(C)C[C@@H]1NC(=O)[C@H](CCN)NC(=O)[C@H](CCN)NC(=O)[C@H](Cc2ccccc2)NC(=O)[C@@H](CC(C)C)NC(=O)[C@H](CCN)NC(=O)[C@@H](NC(=O)[C@@H](CCN)NC(=O)c2ccc(Oc3ccccc3)cc2)CCNC1=O [compound 6519, Ph-4-OPhCO-D-Dab-cyc[L-Dab-L-Dab-D-Leu-L-Phe-L-Dab-L-Dab-L-Leu]] ({Benzoyl(4-OPh)}-[dDab][Dab][Dab][dL]F[Dab][Dab]L; lactam 2-C)	> 300 µM	4 µg/mL (≈ 3.74 µM)	1 µg/mL (≈ 0.934 µM)	16 µg/mL (≈ 14.9 µM)	>32 µg/mL	32 µg/mL (≈ 29.9 µM)	2 µg/mL (≈ 1.87 µM)	16 µg/mL (≈ 14.9 µM)	32 µg/mL (≈ 29.9 µM)	2 µg/mL (≈ 1.87 µM)	32 µg/mL (≈ 29.9 µM)	>32 µg/mL	8 µg/mL (≈ 7.47 µM)	163 µM	> 300 µM		
CC(C)C[C@@H]1NC(=O)[C@H](CCN)NC(=O)[C@H](CCN)NC(=O)[C@H](Cc2ccccc2)NC(=O)[C@@H](CC(C)C)NC(=O)[C@H](CCN)NC(=O)[C@@H](NC(=O)[C@@H](CCN)NC(=O)CCCOc2ccccc2)CCNC1=O [compound 6521, 4-phenoxybutanoic acid-D-Dab-cyc[L-Dab-L-Dab-D-Leu-L-Phe-L-Dab-L-Dab-L-Leu]] ({Butanoyl(4-OPh)}-[dDab][Dab][Dab][dL]F[Dab][Dab]L; lactam 2-C)	> 300 µM	16 µg/mL (≈ 15.4 µM)	2 µg/mL (≈ 1.93 µM)	32 µg/mL (≈ 30.9 µM)	>32 µg/mL	>32 µg/mL	8 µg/mL (≈ 7.72 µM)	16 µg/mL (≈ 15.4 µM)	32 µg/mL (≈ 30.9 µM)	2 µg/mL (≈ 1.93 µM)	>32 µg/mL	16 µg/mL (≈ 15.4 µM)	16 µg/mL (≈ 15.4 µM)	290 µM	> 300 µM		
CC(C)C[C@@H]1NC(=O)[C@H](CCN)NC(=O)[C@H](CCN)NC(=O)[C@H](Cc2ccccc2)NC(=O)[C@@H](CC(C)C)NC(=O)[C@H](CCN)NC(=O)[C@@H](NC(=O)[C@@H](CCN)NC(=O)c2ccc(-c3ccccc3)cc2)CCNC1=O [compound 6518, Ph-4-PhCO-D-Dab-cyc[L-Dab-L-Dab-D-Leu-L-Phe-L-Dab-L-Dab-L-Leu]] ({Benzoyl(4-Ph)}-[dDab][Dab][Dab][dL]F[Dab][Dab]L; lactam 2-C)	> 300 µM	2 µg/mL (≈ 1.9 µM)	2 µg/mL (≈ 1.9 µM)	16 µg/mL (≈ 15.2 µM)	>32 µg/mL	32 µg/mL (≈ 30.4 µM)	2 µg/mL (≈ 1.9 µM)	16 µg/mL (≈ 15.2 µM)	32 µg/mL (≈ 30.4 µM)	2 µg/mL (≈ 1.9 µM)	>32 µg/mL	>32 µg/mL	8 µg/mL (≈ 7.59 µM)	180 µM	≥ 300 µM		
CC(C)C[C@@H]1NC(=O)[C@H](CCN)NC(=O)[C@H](CCN)NC(=O)[C@H](CC(C)C)NC(=O)[C@@H](Cc2ccccc2)NC(=O)[C@H](CCN)NC(=O)[C@@H](NC(=O)[C@@H](CCN)NC(=O)CC[C@@H](C)[C@H]2CC[C@H]3[C@@H]4[C@H](O)C[C@@H]5C[C@H](O)CC[C@]5(C)[C@H]4C[C@H](O)[C@]23C)CCNC1=O [compound 5016, cholic acid-D-Dab-cyc[L-Dab-L-Dab-D-Phe-L-Leu-L-Dab-L-Dab-L-Leu]] (Cholyl-[dDab][Dab][Dab][dF]L[Dab][Dab]L; lactam 2-C)	48 µM	4 µg/mL (≈ 3.16 µM)		4 µg/mL (≈ 3.16 µM)	16 µg/mL (≈ 12.7 µM)	32 µg/mL (≈ 25.3 µM)	8 µg/mL (≈ 6.33 µM)	8 µg/mL (≈ 6.33 µM)	16 µg/mL (≈ 12.7 µM)	4 µg/mL (≈ 3.16 µM)	8 µg/mL (≈ 6.33 µM)	8 µg/mL (≈ 6.33 µM)	4 µg/mL (≈ 3.16 µM)	17 µM	46 µM	4 µg/mL (≈ 3.16 µM)	
CCCCCCC[C@@H](O)CC(=O)N[C@H](CCN)C(=O)N[C@H]1CCNC(=O)[C@H](CC(C)C)NC(=O)[C@H](CCNC(=O)[C@@H](N)CCCNC(=N)N)NC(=O)[C@H](CCN)NC(=O)[C@H](CC(C)C)NC(=O)[C@@H](Cc2ccccc2)NC(=O)[C@H](CCN)NC1=O [compound 6653, 3(R)OH-nC9CO-D-Dab-cyc[L-Dab-L-Dab-D-Phe-L-Leu-L-Dab-L-Dab(L-Arg)-L-Leu]] ({Decanoyl(3R-OH)}-[dDab][Dab][Dab][dF]L[Dab][Dab](Arg)L; lactam 2-C)	> 300 µM	4 µg/mL (≈ 3.33 µM)		8 µg/mL (≈ 6.66 µM)	4 µg/mL (≈ 3.33 µM)	32 µg/mL (≈ 26.7 µM)	16 µg/mL (≈ 13.3 µM)	8 µg/mL (≈ 6.66 µM)	16 µg/mL (≈ 13.3 µM)	4 µg/mL (≈ 3.33 µM)	16 µg/mL (≈ 13.3 µM)	>32 µg/mL	8 µg/mL (≈ 6.66 µM)	64 µM	> 300 µM		2 µg/mL (≈ 1.67 µM)
CCCCCCCN1CCC(C(=O)N[C@H](CCN)C(=O)N[C@H]2CCNC(=O)[C@H](CC(C)C)NC(=O)[C@H](CCN)NC(=O)[C@H](CCN)NC(=O)[C@H](CC(C)C)NC(=O)[C@@H](Cc3ccccc3)NC(=O)[C@H](CCN)NC2=O)CC1 [compound 6524, 1-heptylpiperidine-4-carboxylic acid-D-Dab-cyc[L-Dab-L-Dab-D-Phe-L-Leu-L-Dab-L-Dab-L-Leu]] (X1-[dDab][Dab][Dab][dF]L[Dab][Dab]L; lactam 2-C)	> 300 µM	2 µg/mL (≈ 1.85 µM)		>32 µg/mL	>32 µg/mL	32 µg/mL (≈ 29.5 µM)	32 µg/mL (≈ 29.5 µM)	32 µg/mL (≈ 29.5 µM)	32 µg/mL (≈ 29.5 µM)	1 µg/mL (≈ 0.923 µM)	>32 µg/mL	>32 µg/mL	>32 µg/mL	106 µM	> 300 µM	0.5 µg/mL (≈ 0.461 µM)	
